Experimental data reported in the NIST ThermoML archive (doi:10.1021/je034093m).
“And” between values parts separate entries of the source, which are not always exact repeats. Identical values can stand only once. Numbers after ± are expanded uncertainties.

Conditions: Capillary rise

CC(C)C [2-methylpropane]
Conditions	surface tension liquid-gas
255.02 K	14.85 ± 0.16 mN/m
256.94 K	14.69 ± 0.16 mN/m
258.83 K	14.36 ± 0.16 mN/m and 14.37 ± 0.16 mN/m
261.09 K	14.17 ± 0.16 mN/m
262.95 K	14.02 ± 0.16 mN/m and 14.03 ± 0.16 mN/m
264.86 K	13.7 ± 0.16 mN/m and 13.72 ± 0.16 mN/m
267.09 K	13.46 ± 0.16 mN/m and 13.44 ± 0.16 mN/m
268.86 K	13.16 ± 0.16 mN/m
270.9 K	12.95 ± 0.16 mN/m and 12.97 ± 0.16 mN/m
273.38 K	12.68 ± 0.16 mN/m
275.39 K	12.57 ± 0.16 mN/m and 12.6 ± 0.16 mN/m
277.16 K	12.29 ± 0.16 mN/m
279.34 K	12.06 ± 0.16 mN/m
281.3 K	11.77 ± 0.16 mN/m and 11.75 ± 0.16 mN/m
283.29 K	11.62 ± 0.16 mN/m
285.43 K	11.28 ± 0.16 mN/m
287.5 K	11.14 ± 0.16 mN/m and 11.13 ± 0.16 mN/m
289.31 K	10.86 ± 0.16 mN/m
291.65 K	10.74 ± 0.16 mN/m and 10.72 ± 0.16 mN/m
293.66 K	10.5 ± 0.16 mN/m
295.75 K	10.28 ± 0.16 mN/m
297.83 K	10.01 ± 0.16 mN/m and 10.05 ± 0.16 mN/m
299.48 K	9.84 ± 0.16 mN/m
301.43 K	9.57 ± 0.16 mN/m and 9.6 ± 0.16 mN/m
303.91 K	9.37 ± 0.16 mN/m and 9.38 ± 0.16 mN/m
305.75 K	9.14 ± 0.16 mN/m
307.41 K	8.98 ± 0.16 mN/m
309.49 K	8.75 ± 0.16 mN/m and 8.77 ± 0.16 mN/m
311.81 K	8.52 ± 0.16 mN/m and 8.51 ± 0.16 mN/m
313.49 K	8.29 ± 0.16 mN/m and 8.31 ± 0.16 mN/m
315.82 K	8.05 ± 0.16 mN/m and 8.09 ± 0.16 mN/m
317.75 K	7.9 ± 0.16 mN/m and 7.91 ± 0.16 mN/m
319.32 K	7.69 ± 0.16 mN/m and 7.68 ± 0.16 mN/m
321.96 K	7.45 ± 0.16 mN/m and 7.46 ± 0.16 mN/m
323.71 K	7.25 ± 0.16 mN/m and 7.22 ± 0.16 mN/m
325.37 K	7.02 ± 0.16 mN/m and 7.04 ± 0.16 mN/m
327.8 K	6.79 ± 0.16 mN/m and 6.81 ± 0.16 mN/m
329.49 K	6.71 ± 0.16 mN/m
331.68 K	6.42 ± 0.16 mN/m
333.28 K	6.29 ± 0.16 mN/m

CCC [propane]
Conditions	surface tension liquid-gas
253.08 K	12.98 ± 0.16 mN/m
254.8 K	12.7 ± 0.16 mN/m and 12.69 ± 0.16 mN/m
256.89 K	12.38 ± 0.16 mN/m
258.68 K	12.21 ± 0.16 mN/m and 12.2 ± 0.16 mN/m
260.71 K	11.94 ± 0.16 mN/m and 11.97 ± 0.16 mN/m
262.7 K	11.56 ± 0.16 mN/m and 11.58 ± 0.16 mN/m
265.09 K	11.31 ± 0.16 mN/m and 11.32 ± 0.16 mN/m
267.09 K	11.06 ± 0.16 mN/m and 11.05 ± 0.16 mN/m
268.88 K	10.81 ± 0.16 mN/m
270.72 K	10.52 ± 0.16 mN/m and 10.53 ± 0.16 mN/m
273.2 K	10.17 ± 0.16 mN/m
275.38 K	9.97 ± 0.16 mN/m
277.43 K	9.71 ± 0.16 mN/m
279.39 K	9.4 ± 0.16 mN/m
281.48 K	9.14 ± 0.16 mN/m and 9.15 ± 0.16 mN/m
289.27 K	8.14 ± 0.16 mN/m and 8.15 ± 0.16 mN/m
293.85 K	7.49 ± 0.16 mN/m
295.73 K	7.23 ± 0.16 mN/m
297.4 K	7.04 ± 0.16 mN/m
299.41 K	6.85 ± 0.16 mN/m and 6.87 ± 0.16 mN/m
301.45 K	6.62 ± 0.16 mN/m
303.54 K	6.33 ± 0.16 mN/m and 6.34 ± 0.16 mN/m
305.17 K	6.21 ± 0.16 mN/m and 6.22 ± 0.16 mN/m
308.01 K	5.86 ± 0.16 mN/m
310.73 K	5.55 ± 0.16 mN/m
314.39 K	5.06 ± 0.16 mN/m
315.71 K	4.85 ± 0.16 mN/m and 4.84 ± 0.16 mN/m
317.64 K	4.62 ± 0.16 mN/m and 4.63 ± 0.16 mN/m
319.43 K	4.42 ± 0.16 mN/m
321.41 K	4.25 ± 0.16 mN/m and 4.26 ± 0.16 mN/m
323.34 K	4.01 ± 0.16 mN/m and 4.02 ± 0.16 mN/m
325.32 K	3.8 ± 0.16 mN/m and 3.81 ± 0.16 mN/m
327.4 K	3.6 ± 0.16 mN/m and 3.62 ± 0.16 mN/m
329.79 K	3.32 ± 0.16 mN/m and 3.31 ± 0.16 mN/m
331.79 K	3.12 ± 0.16 mN/m and 3.13 ± 0.16 mN/m
333.3 K	2.94 ± 0.15 mN/m and 2.95 ± 0.15 mN/m
